Where two headings read alike, the source gives them in different places.
Experiments:
[1] = Pharmacokinetics in rats; type: in vivo
Description: The pharmacokinetic parameters were studied for healthy, outbred, adult, male, albino rats (Wistar) about 3 months old weighing 190–210 g. The experiment included 3 rats for preparation. The formulation of conjugate PSMA-Abi was the same as for the acute toxicity evaluation. Administration dose was 1000 mg/kg.
Blood samples were taken from the tail vein of rats in a volume of 0.2 mL in polyethylene micro-tubes with a capillary up to 0.5 mL by trimming the tip of the tail. K2EDTA was used as an anticoagulant. During the study, a total of 48 blood samples from 3 animals (16 samples from each animal) were selected for PSMA-Abi.
Immediately after taking a blood sample, the tube was carefully inverted several times to mix the contents (anticoagulant). The plasma was then separated by centrifugation at 1500× g for 10 min at a temperature of +4 °C. Centrifugation was performed no later than 15 min after sampling each blood sample. The studied conjugate PSMA-Abi was determined in the blood plasma samples of rats and rabbits by high-performance liquid chromatography (Agilent 1200) with tandem mass spectrometric detection (QTrap 4500 tandem mass spectrometer) with preliminary isolation of the analyte from the biomaterial. Detailed method parameters are described in Table S6.

[2] = biological target: T1, cytochrome P450 2C8 (Homo sapiens, UniProt P10632); assay: Cytochrome inhibition in human liver microsomes, 2C8; type: in vitro ADME; conditions: substrate Paclitaxel, read-out: IC50, 2C8 (PSMA-Abi)
T1 construct: isoenzyme activity in human liver microsomes using conventional sample substrates and HPLC-MS/MS detection; from tissue; host or cells: human liver microsomes
T1 sequence (P10632 1-490): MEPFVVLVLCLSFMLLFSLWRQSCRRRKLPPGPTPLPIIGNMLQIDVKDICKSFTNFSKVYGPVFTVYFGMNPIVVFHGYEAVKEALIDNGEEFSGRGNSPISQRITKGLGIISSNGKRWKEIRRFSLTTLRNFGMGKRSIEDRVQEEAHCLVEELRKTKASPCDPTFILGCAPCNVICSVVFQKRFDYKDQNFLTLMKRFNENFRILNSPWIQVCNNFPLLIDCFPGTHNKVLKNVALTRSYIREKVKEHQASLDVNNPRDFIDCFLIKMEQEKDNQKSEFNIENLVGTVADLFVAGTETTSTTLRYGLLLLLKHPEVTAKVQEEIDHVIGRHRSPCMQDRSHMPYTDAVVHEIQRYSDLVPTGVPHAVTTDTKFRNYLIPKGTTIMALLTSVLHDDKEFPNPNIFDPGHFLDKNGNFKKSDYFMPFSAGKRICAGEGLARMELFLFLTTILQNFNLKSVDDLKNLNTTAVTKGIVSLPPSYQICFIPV
Description: (§1) To assess the effect of drugs on liver cytochrome activity in drug development, test systems with recombinant enzymes and fluorescent substrates as well as microsomes with metabolic substrates and HPLC-MS/MS analysis were used. The present study aimed to investigate the effect of targeted delivery drugs specific to malignant prostate cells on cytochrome P450 (CYP450) isoenzyme activity in human liver microsomes using conventional sample substrates and HPLC-MS/MS detection. Detailed methodological parameters are described in the Supplementary Material.

[3] = biological target: T2, cytochrome P450 3A4 (Homo sapiens, UniProt P08684); assay: Cytochrome inhibition in human liver microsomes, 3A4; type: in vitro ADME
T2 construct: isoenzyme activity in human liver microsomes using conventional sample substrates and HPLC-MS/MS detection; from tissue; host or cells: human liver microsomes
Description: as §1

[4] = biological target: T3, cytochrome P450 1A2 (Homo sapiens, UniProt P05177); assay: Cytochrome inhibition in human liver microsomes, 1A2; type: in vitro ADME; conditions: substrate Phenacetin, read-out: IC50, 1A2 (PSMA-Abi)
T3 construct: isoenzyme activity in human liver microsomes using conventional sample substrates and HPLC-MS/MS detection; from tissue; host or cells: human liver microsomes
T3 sequence (P05177 1-516): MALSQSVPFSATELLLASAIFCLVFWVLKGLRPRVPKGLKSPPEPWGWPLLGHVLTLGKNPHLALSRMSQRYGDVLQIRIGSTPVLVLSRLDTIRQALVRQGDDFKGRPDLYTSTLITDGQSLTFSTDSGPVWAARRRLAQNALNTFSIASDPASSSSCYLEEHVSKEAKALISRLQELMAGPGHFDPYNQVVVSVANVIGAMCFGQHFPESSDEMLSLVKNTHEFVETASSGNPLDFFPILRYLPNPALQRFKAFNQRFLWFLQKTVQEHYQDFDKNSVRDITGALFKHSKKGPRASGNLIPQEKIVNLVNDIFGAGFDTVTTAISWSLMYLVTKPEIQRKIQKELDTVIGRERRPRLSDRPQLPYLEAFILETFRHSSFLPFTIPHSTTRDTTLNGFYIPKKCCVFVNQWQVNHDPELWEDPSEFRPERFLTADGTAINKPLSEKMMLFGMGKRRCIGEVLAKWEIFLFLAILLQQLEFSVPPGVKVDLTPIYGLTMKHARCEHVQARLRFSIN
Description: as §1

[5] = system: 22Rv1 prostate cancer subcutaneous xenograft; assay: 22Rv1 human tumor xenograft mouse model; type: in vivo, Balb/c nude mice; conditions: 22Rv1 xenografts
Description: Male, 6–8 week old Balb/c nude mice with body weight range of 20–22 g were purchased from N.N.Blokhin Cancer Research Center. Animals were kept in plastic cages equipped with lids with feeding recesses, air filters, and feed dividers at 2–3 mice per cage.
Mice were injected subcutaneously in the right and left flanks with 1 × 10^7 22Rv1 cells in RPMI-1640 medium 0.2 mL supplemented with 0.2 mL Corning Matrigel® matrix (Corning, NY, USA) in a total volume of 400 μL. When the average size of the tumors reached ~100 mm^3, mice were randomly divided into three groups, with five mice per group, including a vehicle group (1% starch paste) and two treatment groups: PSMA-Abi 500 mg/kg/day and AbiAc 200 mg/kg/day for 14 days. The drugs were administered orally, and all compounds were formulated with 1% starch paste. Following the treatment, the primary tumor size was measured twice weekly with a micro-caliper, and the tumor volume was calculated using the formula: Volume = π/6 × length × width × height. Treatment outcome was based on percentage of tumor growth inhibition (%TGI), defined as the percent difference between the median tumor volumes (MTVs) of mice in the treated and control groups. Percent TGI was calculated using the following formula: %TGI = [1 − (MTV treatment group/MTV control)] 100%. All data are presented as means ± SD. Statistical analyses of in vivo research were performed using SPSS Statistics V. 22.0, comparing continuous variables by non-parametrical Mann–Whitney U. * p ≤ 0.05 was considered as significant in comparison with the control.

[6] = single oral administration, mean
[7] = single peroral 1000 mg/kg, Mean ± SD
[8] = oral x14, PSMA-Abi 500, AbiAc 200 mg/kg/day

T2 sequence (P08684 whole entry): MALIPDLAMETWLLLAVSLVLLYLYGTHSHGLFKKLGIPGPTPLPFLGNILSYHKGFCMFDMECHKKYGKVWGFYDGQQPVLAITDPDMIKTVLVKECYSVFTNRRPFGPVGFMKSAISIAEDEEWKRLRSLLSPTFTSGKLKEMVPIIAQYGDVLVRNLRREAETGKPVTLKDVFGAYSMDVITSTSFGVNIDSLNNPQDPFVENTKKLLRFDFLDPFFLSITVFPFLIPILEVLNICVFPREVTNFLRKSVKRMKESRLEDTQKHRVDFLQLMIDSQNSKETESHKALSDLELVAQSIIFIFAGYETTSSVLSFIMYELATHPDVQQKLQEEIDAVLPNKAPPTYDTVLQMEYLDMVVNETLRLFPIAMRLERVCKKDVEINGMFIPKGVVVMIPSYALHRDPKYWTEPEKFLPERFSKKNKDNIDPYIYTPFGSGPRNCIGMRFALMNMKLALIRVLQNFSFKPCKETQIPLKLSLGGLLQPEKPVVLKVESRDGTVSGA

## C[C@]12CC[C@H](OC(=O)CCCc3cn(CCCNC(=O)[C@H](Cc4ccc(O)cc4)NC(=O)[C@H](Cc4ccccc4)NC(=O)CCC(=O)NCCCCCC(=O)N(CCCC[C@H](NC(=O)N[C@@H](CCC(=O)O)C(=O)O)C(=O)O)Cc4cccc(Cl)c4)nn3)CC1=CC[C@@H]1[C@@H]2CC[C@]2(C)C(c3cccnc3)=CC[C@@H]12 [PSMA-Abi]
[1]; oral 1000 mg/kg
  maximum plasma concentrations, range over animals: 190 to 537 ng/mL
  time plasma concentrations were detected after administration: at least 72 h
  time to maximum plasma concentration, range over animals: 1.5 to 8 h
[1]; [6]
  AUC0–t: 3791 ± 875 ng·h/mL
  AUC0–∞: 4623 ± 1260 ng·h/mL
[1]; single peroral 1000 mg/kg, 1% starch suspension, Mean ± SD
  Cmax: 318 ± 190 ng/mL
[1]; [7]
  AUC0–t: 3791 ± 875 ng·h/mL
  AUC0–∞: 4623 ± 1260 ng·h/mL
  AUCt–∞/AUC0–∞: 21 ± 5%
  Kel: 0.023 ± 0.006 h⁻¹
  MRT0–t: 27.2 ± 1.7 h
  T1/2 (elimination half-life): 31.3 ± 8.7 h
[1]; single peroral 1000 mg/kg, mean
  Tmax: 3.8 h
[2]
  IC50: 4.4 ± 1.1 µM
[3]; substrate Midazolam, read-out: IC50, 3A4-M (PSMA-Abi)
  IC50: 1.1 ± 0.2 µM
[3]; substrate Testosterone, read-out: IC50, 3A4-T (PSMA-Abi)
  IC50: 5.7 ± 0.8 µM
[4]
  IC50: 4.5 ± 1.1 µM
[5]; oral x14, PSMA-Abi 500 mg/kg/day, AbiAc 200 mg/kg/day, after the end of treatment
  TGImax (tumor growth inhibition): 65%
[5]; [8]
  TGI, day 15 after start of the treatment: 65%
  TGI, day 18 after start of the treatment: 63%
  TGI, day 22 after start of the treatment: 60%
  Tumor volume (M+SE), day 15: 876±197 mm3
  Tumor volume (M+SE), day 18: 1063±195 mm3
  Tumor volume (M+SE), day 22: 1294±201 mm3
[5]; start of treatment
  Tumor volume (M+SE), day 0: 110±18 mm3

Reference: paper PMC9783881, “Synthesis and Preclinical Evaluation of Small-Molecule Prostate-Specific Membrane Antigen-Targeted Abiraterone Conjugate” (Molecules, 2022)
